The values that follow come from patent publication US12435077B2, “Oxazolidinone compound and methods of use thereof as an antibacterial agent” (priority 2020, dated 2025).

Data set [1] is described as follows: Plasma protein binding, dog plasma. It is filed as in vitro ADME. As for the experimental part: (§1) Binding of compounds to plasma proteins from rat and dog was determined by equilibrium dialysis of the appropriate species plasma at 37° C. for 4 hours in the presence of 2.5 uM of test compound. Plasma samples were precipitated and separated by centrifugation. The supernatant was analyzed by mass spec detection (LC-MS/MS), using a standard curve for each compound. The fraction of unbound compound was calculated per the following: • Fraction Unbound (fu)=Peak Area Ratiobuffer/Peak Area Ratioplasma • where • Peak Area Ratiobuffer=Peak area ratio of analyte/internal standard in buffer • Peak Area Ratioplasma=Peak area ratio of analyte/internal standard in plasma

Data set [2] can be described thus: Plasma protein binding, rat plasma. It is filed as in vitro ADME. On the procedure: as §1
Data set [3] can be described thus: in vivo. The settings on record: male, dog, iv. On the procedure: Plasma pharmacokinetic parameters for clearance, volume of distribution, half-life, mean residence time (MRT) and oral bioavailability were determined in dogs from oral administration and IV administration studies. Four male dogs, typically weighing 8-12 kilograms, were fasted overnight prior to dosing. Compounds were prepared for oral and IV dosing by addition to a vehicle, depending on the dose used. For a typical preparation, 1 mg per mL (IV) or 1.5 mg per mL (oral) of test compound was added to vehicle comprised of 20% dimethyl sulfoxide (DMSO), 60% polyethylene glycol 400 (PEG400) and 20% water. IV formulation was administered to two dogs via the saphenous or cephalic vein, and oral dosing was administered to two dogs via oral gavage. Blood was collected by the cephalic or jugular vein, typically at predose, 2, 8, 15, 30 mins, 1, 2, 4, 6, 8 and 24 hours post-dose for IV, and at predose, 15, 30 mins, 1, 2, 4, 6, 8, and 24 hours for oral dosing. Samples were collected in K2EDTA tubes, stored on ice, and centrifuged. Plasma was transferred to a micro titer plate and stored at −70° C. until analysis. Plasma samples were extracted using protein precipitation and analyzed by liquid chromatography separation followed by mass spec detection (LC-MS/MS), using a standard curve for each compound. Plasma pharmacokinetic parameters were calculated for IV and oral dosing data by non-compartmental methods. Oral bioavailability was determined as the ratio of the dose-normalized plasma area under the curve (AUC) following oral dosing verses IV dosing. Plasma pharmacokinetic parameters for clearance, volume of distribution, half-life, and mean residence time (MRT) were determined in dogs from IV cassette administration studies. Two male dogs, typically weighing 8-12 kilograms, were fasted overnight prior to dosing. Compounds were prepared for IV dosing by addition to a vehicle, depending on the dose used. For a typical preparation, 1 mg per mL (IV) of up to 5 test compounds were added to vehicle comprised of 20% dimethyl sulfoxide (DMSO), 60% polyethylene glycol 400 (PEG400) and 20% water. IV formulation was administered to two dogs via the saphenous or cephalic vein. Blood was collected by the cephalic or jugular vein, typically at predose, 2, 8, 15, 30 mins, 1, 2, 4, 6, 8 and 24 hours post-dose. Samples were collected in K2EDTA tubes, stored on ice, and centrifuged. Plasma was transferred to a micro titer plate and stored at −70° C. until analysis. Plasma samples were extracted using protein precipitation and analyzed by liquid chromatography separation followed by mass spec detection (LC-MS/MS), using a standard curve for each compound. Plasma pharmacokinetic parameters were calculated by non-compartmental methods.

Data set [4] can be described thus: in vivo. The settings on record: male, rat, iv. On the procedure: Plasma pharmacokinetic parameters for clearance, volume of distribution, half-life and oral bioavailability were determined in rats from oral administration and IV administration studies. 4 male rats, typically weighing 225-260 gram, were fasted overnight prior to dosing. Compounds were prepared for oral and IV dosing by addition to a vehicle, depending on the dose used. For a typical preparation, 1 mg per mL (IV) or 1.5 mg per mL (oral) of test compound was added to vehicle comprised of 20% dimethyl sulfoxide (DMSO), 60% polyethylene glycol 400 (PEG400) and 20% water. Intravenous (IV) formulation was administered to two rats via pre-cannulated jugular vein, and oral dosing was administered to two rats via oral gavage. Blood was collected by pre-cannulated artery, typically at predose, 2, 8, 15, 30 min, 1, 2, 4, 6, and 8 hours post-dose for IV, and at predose, 15, 30 mins, 1, 2, 4, 6, 8 hours for oral dosing. Samples were collected in K2EDTA tubes, stored on ice, and centrifuged. Plasma was transferred to a micro titer plate and stored at −70° C. until analysis. Plasma samples were extracted using protein precipitation and analyzed by liquid chromatography separation followed by mass spec detection (LC-MS/MS), using a standard curve for each compound. Plasma pharmacokinetic parameters were calculated for IV and oral dosing data by non-compartmental methods. Oral bioavailability was determined as the ratio of the dose-normalized plasma area under the curve (AUC) following oral dosing vs. IV dosing. Plasma pharmacokinetic parameters for clearance, volume of distribution, half-life and mean residence time (MRT) were determined in rats from IV cassette administration studies. Two male rats typically weighing 225-260 gram, were fasted overnight prior to dosing. Compounds were prepared for IV dosing by addition to a vehicle, depending on the dose used. For a typical preparation, 1 mg per mL (IV) of up to 5 test compounds were added to vehicle comprised of 20% dimethyl sulfoxide (DMSO), 60% polyethylene glycol 400 (PEG400) and 20% water. IV formulation was administered to two rats via pre-cannulated jugular vein. Blood was collected by pre-cannulated artery, typically at predose, 2, 8, 15, 30 mins, 1, 2, 4, 6, and 8 hours postdose. Samples were collected in K2EDTA tubes, stored on ice, and centrifuged. Plasma was transferred to a micro titer plate and stored at −70° C. until analysis. Plasma samples were extracted using protein precipitation and analyzed by liquid chromatography separation followed by mass spec detection (LC-MS/MS), using a standard curve for each compound. Plasma pharmacokinetic parameters were calculated by non-compartmental methods.

Data set [5] concerns Mycobacterium tuberculosis (Mtb-GFP; H37Rv pMSP12::GFP). It is filed as cell-based. The settings on record: pH 6.8, 7-day growth, 95% growth inhibition; for Mtb Cho MITC95: cholesterol as carbon source; for Mtb Glu MITC95: glucose as carbon source.
In data set [6] the test system is mitochondrial protein synthesis in HepG2 cells. In words: Mitochondrial protein synthesis assay. It is filed as cell-based. The settings on record: Homo sapiens, 96 h, 4 days, COX-I vs SDH-A / Janus Green, read-out: MPS IC50. As for the experimental part:
Inhibition of mitochondrial protein synthesis was assessed in HepG2 cells by comparing the levels of two subunits of oxidative phosphorylation enzyme complexes, subunit I of Complex IV (COX-I) and the 70 kDa subunit of Complex II (SDH-A). COX-I is mitochondrial DNA encoded and SDH-A is nuclear DNA encoded.

The mark [7] stands for this setting: comparison compounds from WO2017/070024, read-out: Dog fu.
The mark [8] stands for this setting: comparison compounds from WO2017/070024, read-out: Rat fu.

What is called MRT is the average time that molecules of a dose stay in the body. The clearance is the rate of elimination divided by the concentration. Read a low clearance as a low capacity for elimination. As a reminder, the Vd is the apparent volume that relates the amount in the body to the concentration in plasma or blood. Low readings indicate confinement near the circulation, high ones extensive tissue distribution. Regarding `COC(=O)NC[C@H]1CN(c2cc(F)c(N3CCS(=O)(=O)CC3)c(F)c2)C(=O)O1` [Example 1, methyl ({(5S)-3-[4-(1,1-dioxo-1λ^6-thiomorpholin-4-yl)-3,5-difluorophenyl]-2-oxo-1,3-oxazolidin-5-yl}methyl)carbamate], the fraction unbound at 4 h, 2.5 uM in data set [1] (equilibrium dialysis, 37° C., 4 hours, 2.5 uM, read-out: Dog fu) came to 0.69. Besides, the fraction unbound at 4 h, 2.5 uM in data set [2] (equilibrium dialysis, 37° C., 4 hours, 2.5 uM, read-out: Rat fu) stood at 0.42. In data set [3], the MRT amounted to 12.6 h and the clearance is 1.9 mL/min/kg. Also, in data set [4], the mean residence time (MRT) came to 102 min, the Vd is 0.9 L/kg and the clearance was 8.5 mL/min/kg. Also, in data set [5], the “Mtb Cho MITC95” value amounted to 1.16 µM and the “Mtb Glu MITC95” value stood at 0.71 µM.

Broadly, the IC50 is the point on the concentration scale where inhibition reaches its midpoint. For `CC(=O)NC[C@H]1CN(c2ccc(N3CCOCC3)c(F)c2)C(=O)O1` [linezolid], the IC50 in data set [6] came out at 8 µM. For the same molecule, in data set [5], the “Mtb Cho MITC95” value stood at 3.14 µM and the “Mtb Glu MITC95” value turned out to be 4.58 µM.

For `NC[C@H]1CN(c2cnc(N3CCS(=O)(=O)CC3)c(F)c2)C(=O)O1` [Example 48 from WO2017/070024], the fraction unbound at 4 h, 2.5 uM in data set [1] (setting [7]) turned out to be 0.87; in data set [2] (setting [8]), 0.83. The MRT worked out at 1.3 h in data set [3] and 30 min in data set [4]. Moreover, the Vd in data set [3] amounted to 1.5 L/kg; in data set [4], 2.5 L/kg. The clearance in data set [3] amounted to 18 mL/min/kg; in data set [4], 85 mL/min/kg.

Take `NC[C@H]1CN(c2cc(F)c(N3CCOCC3)c(F)c2)C(=O)O1` [Example 59 from WO2017/070024]: the fraction unbound at 4 h, 2.5 uM in data set [1] (setting [7]) stood at 0.81. Further, in data set [2] (setting [8]), the fraction unbound at 4 h, 2.5 uM turned out to be 0.57. Moreover, in data set [3], the MRT came out at 1.3 h, the Vd turned out to be 4.2 L/kg and the clearance was determined as 53 mL/min/kg. Moreover, in data set [4], the MRT came to 48 min, the Vd was 2 L/kg and the clearance is 43 mL/min/kg.
